Patent publication US11117918B2, “Enzyme-directed immunostimulant and uses thereof” (Washington State University, priority 2016, dated 2021)

Test system: RAW-Blue cells
Assay: Inverse RAW-Blue assay after conversion by α-Mannosidase or AT3B-1 cells
Format: cell-based
Protocol: α-Mannosidase from Canavalia ensiformis (Jack bean) was used directly from the bottle to make a 1 U/mL stock solution in DPBS. Before administering the enzyme, the solution was filtered through a sterile 0.2 μm syringe filter to yield the working stock solution. 20 μL of the working stock solution was added to wells requiring exogenous enzyme to achieve a 0.1 U/mL α-Mannosidase concentration.
For inverse RAW-Blue assays, pro-immunostimulant (12) was first converted to Imiquimod by either exogenous α-Mannosidase (0.1 U/well) or via AT3B-1 cell metabolism prior to RAW-Blue exposure. To accomplish this, pro-immunostimulant (12) and controls were dosed at a concentration 10× the desired concentration to be administered to immune cells. For instance, to investigate the effects on RAW-Blue stimulation of a 10 μM dose of pro-immunostimulant […] the following steps would be taken: First, in an optically clear bottomed 96-well plate, wells were prepared to contain 180 μL of complete AT3B-1 cell media (without doxorubicin) and either α-Mannosidase or the desired AT3B-1 cell density (cells were given a minimum of 60 mins to adhere). Second, a 100 μM dose of (12) in DPBS was administered to the wells and total well volumes were adjusted to 200 μL with complete cell media (without doxorubicin). Cells were incubated (37° C., 5% CO2) for 24-72 h. […]

SMILES: CC(C)Cn1cnc2c(NC(=O)OCc3ccc(O[C@H]4O[C@H](CO)[C@@H](O)[C@H](O)[C@@H]4O)c([N+](=O)[O-])c3)nc3ccccc3c21 [compound 12]
- immunogenicity (RAW-Blue activation) (10 μM, exogenous α-Mannosidase and AT3B-1 driven conversion to Imiquimod): confers immunogenicity
- RAW-Blue activity (without a conversion driver): abrogated activity
